Measurements published in US12097173B2, “Volatile organic compound formulations having antimicrobial activity” (priority 2019, dated 2024).

Columns and labels:
Format in all cases: cell-based
[1] = tested on: Cercospora beticola; assay: plate bioassay of volatile test mixtures, growth inhibition
Protocol: (§1) FIG. 1 illustrates a plate bioassay to determine the bioactivity of various esters when combined with a 1:1 mix of the two organic acids as per Table 2. The test organisms were as follows—Cercospora (dark-lower left bottom) then clockwise—Phytophthora, Verticillium, Sclerotinia, Pythium. Fusarium, Trichoderma, Rhizoctonia, and Aspergillus. The streaks were Saccharomyces (far right bottom) then Candida, E coli and Bacillus (left bottom). A=control plate, and B=plate with System 1 after incubation for 30 hr.
(§2) FIG. 9 depicts the biological activities of various test mixtures against a panel of test microbes. A small plug of each organism was placed in the periphery of the PDA plate. In the center well was placed the test solution in the plastic cup holder. A control plate (A) was also set up. After 30 hr the growth of the test organisms was compared to that of the control and the % inhibition was calculated. The (B) plate contained the test mixture. Measurements were made 30 hr after plate set up.
(§3) FIG. 1. Indicates how the assays were done to yield the data sets in Table 1. The various esters were combined with a 1:1 mixture of propanoic acid and isobutryic acid and these were added 7:2 V/V with the ester to be tested.
(§4) Shown in Table 1, are the inhibition and killing effects of propanoic acid, and isobutryic acid together and alone and with various esters. The tests were conducted over the course of 30 hr at 22° C. Measurements were made on appropriate controls and thus the percentage of inhibition calculations could be made on treatments vs the growth on a control organism (non-treated). The bacteria and yeast like organisms were evaluated on the basis of relative growth rates after 30 hr. Those highlighted areas on the table show those compounds (esters) having the most compatibility with propanoic and isobutryic acid 1:1 v/v mixtures with the appropriate esters at a 7:2 ratio—Systems 1 and 2 above. It is from this test that Systems 1 and 2 were discovered. The acids were added at […] individually and combination of the esters with the acids were added at the […] in the plate assay.
(§5) Tests were conducted as similarly described for Systems 1 and 2 above (FIG. 9) to ascertain the biological activities of various test mixtures against a panel of test microbes. A small plug of each organism was placed in the periphery of the PDA plate. In the center well was placed the test solution in the plastic cup holder. A control plate (A) was also set up. After 30 hr the growth of the test organisms was compared to that of the control and the % inhibition was calculated. The (B) plate contained the test mixture. Measurements were made 30 hr after plate set up.

[2] = tested on: Phytophthora cinnamomi; assay: as above
Protocol: as §1, §2, §3, §4, §5

[3] = tested on: Pythium ultimum; assay: as above
Protocol: as §1, §2, §3, §4, §5

[4] = tested on: Rhizoctonia solani; assay: as above
Protocol: as §1, §2, §3, §4, §5

[5] = tested on: Trichoderma viridae; assay: as above
Protocol: as §1, §2, §3, §4, §5

[6] = tested on: Verticillium dahliae; assay: as above
Protocol: as §1, §2, §3, §4, §5

[7] = tested on: Sclerotinia sclerotiorum; assay: as above
Protocol: as §1, §2, §3
The tests were conducted over the course of 30 hr at 22° C. Measurements were made on appropriate controls and thus the percentage of inhibition calculations could be made on treatments vs the growth on a control organism (non-treated). The bacteria and yeast like organisms were evaluated on the basis of relative growth rates after 30 hr. […] The acids were added at […] individually and combination of the esters with the acids were added at the […] in the plate assay.
as §5

[8] = tested on: Aspergillus fumigatus; assay: as above; settings: 30 hr at 22° C.; esters with 1:1 v/v propanoic acid and isobutryic acid (acids to ester 7:2 v/v), 9 ul; acids 7 ul
Protocol: as §1, §3, §4

[9] = tested on: Fusarium subglutinans; assay: as above; settings: 30 hr at 22° C.; esters with 1:1 v/v propanoic acid and isobutryic acid (acids to ester 7:2 v/v), 9 ul; acids 7 ul
Protocol: as §1, §3, §4

[10] = tested on: Bacillus subtilus; assay: plate bioassay of volatile test mixtures, relative growth of streak
Protocol: as §1, §2, §3, §4, §5

[11] = tested on: Candida albicans; assay: as above
Protocol: as §1, §2, §3, §4, §5

[12] = tested on: Escherichia coli; assay: as above
Protocol: as §1, §2, §3, §4, §5

[13] = tested on: Saccharomyces cerevicae; assay: as above
Protocol: as §1, §2, §3, §4, §5

[14] = tested on: Aspergillus flavus; assay: plate bioassay of volatile test mixtures, growth inhibition; settings: Table 4; 30 hr at room temperature, compared to control
Protocol: as §2, §5
(§6) All testing was done according to the methods in Table 4

[15] = tested on: Fusarium solani; assay: as above; settings: Table 4; 30 hr at room temperature, compared to control
Protocol: as §2, §5, §6

[16] = 30 hr at 22° C., esters with 1:1 v/v propanoic acid and isobutryic acid (acids to ester 7:2 v/v), 9 ul, acids 7 ul
[17] = Table 4, 30 hr at room temperature, compared to control
[18] = Table 4, 30 hr at room temperature
[19] = relative growth after 30 hr at 22° C., esters with 1:1 v/v propanoic acid and isobutryic acid (7:2 v/v), 9 ul, acids 7 ul

Compound: CCC(=O)O [Propanoic Acid, reference compound]
- inhibition of Cercospora beticola [1, 16]: 95%
- percent inhibition of the growth of Cercospora beticola [1, 17]: 66%
- inhibition of Phytophthora cinnamomi [2, 16]: 67%
- percent inhibition of the growth of Phytophthora cinnamomi [2, 17]: 38%
- inhibition of Pythium ultimum [3, 16]: 91%
- percent inhibition of the growth of Pythium ultimum [3, 17]: 100%
- inhibition of Rhizoctonia solani [4, 16]: 100%
- percent inhibition of the growth of Rhizoctonia solani [4, 17]: 81%
- inhibition of Trichoderma viridae [5, 16]: 53%
- percent inhibition of the growth of Trichoderma viridae [5, 17]: 45%
- inhibition of Verticillium dahliae [6, 16]: 96%
- percent inhibition of the growth of Verticillium dahliae [6, 17]: 83%
- inhibition of Sclerotinia sclerotiorum [7, 16]: 60%
- percent inhibition of the growth of Sclerotinia sclerotiorum [7, 17]: 0%
- inhibition of Aspergillus fumigatus [8]: 80%
- inhibition of Fusarium subglutinans [9]: 83%
- growth of Bacillus subtilus [10, 18]: No
- growth of Bacillus subtilus [10, 19]: No Growth
- growth of Candida albicans [11, 18]: Medium
- growth of Candida albicans [11, 19]: Growth Observed
- growth of Escherichia coli [12, 18]: No
- growth of Escherichia coli [12, 19]: No Growth
- growth of Saccharomyces cerevisiae [13, 18]: Yes
- growth of Saccharomyces cerevicae [13, 19]: Growth Observed
- percent inhibition of the growth of Aspergillus flavus [14]: 52%
- percent inhibition of the growth of Fusarium solani [15]: 17%
